Source: PMC6001238, “Iterative Chemical Engineering of Vancomycin Leads to Novel Vancomycin Analogs With a High in Vitro Therapeutic Index” (Frontiers in Microbiology, 2018)
Values after ≈ are worked out from the molar mass of the structure shown. Where two headings read alike, the source gives them in different places.

How the values were obtained:
[1] = tested on: E. faecalis VSE 1; test: MIC, broth microdilution, vancomycin-sensitive E. faecalis (VSE 1); type: cell-based, Enterococcus faecalis
Outline: (§1)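 Controls (ultrapure water; broth not inoculated) were included throughout CLSI-compliant broth microdilution. One condition supplemented analogue or comparator with 10 μM vancomycin, final level.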

[2] = tested on: E. faecalis VRE 6; test: MIC, broth microdilution, vancomycin-resistant E. faecalis VRE 6 (VanA); type: cell-based, Enterococcus faecalis
Outline: as §1

[3] = tested on: E. faecalis VRE 53; test: MIC, broth microdilution, vancomycin-resistant E. faecalis VRE 53 (VanA); type: cell-based, Enterococcus faecalis
Outline: as §1

[4] = tested on: E. faecalis VRE 29; test: MIC, broth microdilution, vancomycin-resistant E. faecalis VRE 29 (VanA); type: cell-based, Enterococcus faecalis
Outline: as §1

[5] = tested on: E. faecalis VRE 37; test: MIC, broth microdilution, vancomycin-resistant E. faecalis VRE 37 (VanA); type: cell-based, Enterococcus faecalis
Outline: as §1

[6] = tested on: Murine leukemia (L1210) cells; test: Cytostatic activity, L1210 cell proliferation; type: cell-based; settings: mean ± SD of three experiments; highest concentration tested 250 µM; 2 days; read-out: Toxicity (IC50) L1210
Outline: (§2)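 Coulter counter cell counts after 37°C culture with compound; IC50 = concentration giving 50% growth inhibition vs negative control. Incubation: L1210 2 d, CEM 3 d, HeLa 4 d. Suspension density before mixing with an equal volume of dilution: 300,000–500,000 cells/mL.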

[7] = tested on: human T-lymphocyte (CEM) cells; test: Cytostatic activity, CEM cell proliferation; type: cell-based; settings: mean ± SD of three experiments; highest concentration tested 250 µM; 3 days; read-out: Toxicity (IC50) CEM
Outline: as §2

[8] = tested on: human cervix carcinoma (HeLa) cells; test: Cytostatic activity, HeLa cell proliferation; type: cell-based; settings: mean ± SD of three experiments; highest concentration tested 250 µM; 4 days; read-out: Toxicity (IC50) HeLa
Outline: as §2

[9] = tested on: L1210, CEM and HeLa cell lines; test: Cytostatic activity, average or summary over L1210, CEM and HeLa; type: cell-based
Outline: as §2

[10] = tested on: S. aureus VSSA (ATCC 6538); test: MIC, broth microdilution, vancomycin-sensitive S. aureus (VSSA/MSSA, ATCC 6538); type: cell-based, Staphylococcus aureus
Outline: as §1

[11] = tested on: S. aureus VISA/HIP5827; test: MIC, broth microdilution, vancomycin-intermediate S. aureus VISA HIP5827; type: cell-based, Staphylococcus aureus
Outline: as §1

[12] = tested on: S. aureus VRSA; test: MIC, broth microdilution, vancomycin-resistant S. aureus (VRSA); type: cell-based, Staphylococcus aureus
Outline: as §1

[13] = tested on: MRSA KS2; test: MIC, broth microdilution, MRSA KS2; type: cell-based, Staphylococcus aureus
Outline: as §1

[14] = tested on: MRSA KS6; test: MIC, broth microdilution, MRSA KS6; type: cell-based, Staphylococcus aureus
Outline: as §1

[15] = tested on: MRSA KS89; test: MIC, broth microdilution, MRSA KS89; type: cell-based, Staphylococcus aureus
Outline: as §1

[16] = tested on: MRSA KS1; test: MIC, broth microdilution, MRSA KS1; type: cell-based, Staphylococcus aureus
Outline: as §1

[17] = tested on: 33 clinical VRE isolates; test: MIC against a set of 33 clinical VRE isolates (range, MIC50, TI); type: cell-based, Enterococcus faecalis
Outline: as §1

[18] = tested on: 24 clinical MRSA isolates; test: MIC against a set of 24 clinical MRSA isolates (range, MIC50, TI); type: cell-based, Staphylococcus aureus
Outline: as §1

[19] = tested on: Clostridium difficile ATJ ribotype 014/20; test: MIC, plate drop assay, C. difficile ATJ ribotype 014/20; type: cell-based; settings: C. difficile ATJ ribotype 014/20
Outline: (§3)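 Lawns of each strain were made in soft BHI agar (0.4%) supplemented with CaCl2⋅2H2O and MgCl2⋅6H2O. Twofold compound dilutions (10 μL) were spotted, air-dried and incubated overnight at 37°C anaerobically; MIC read as cleared spots, in triplicate with water as negative control.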

[20] = tested on: Clostridium difficile AIU ribotype 027; test: MIC, plate drop assay, C. difficile AIU ribotype 027; type: cell-based; settings: for MIC-fold improvement vs. vancomycin: C. difficile AIU ribotype 027
Outline: as §3

[21] = tested on: VE 148 (VanB); test: MIC, VanB-type VRE strain VE 148; type: cell-based, Enterococcus; settings: VE 148, VanB; read-out: MIC
Outline: as §1

[22] = tested on: VE 149 (VanB); test: MIC, VanB-type VRE strain VE 149; type: cell-based, Enterococcus; settings: VE 149, VanB; read-out: MIC
Outline: as §1

[23] = tested on: VE 150 (VanB); test: MIC, VanB-type VRE strain VE 150; type: cell-based, Enterococcus; settings: VE 150, VanB; read-out: MIC
Outline: as §1

[24] = tested on: VE 152 (VanB); test: MIC, VanB-type VRE strain VE 152; type: cell-based, Enterococcus; settings: VE 152, VanB; read-out: MIC
Outline: as §1

[25] = tested on: VE 157 (VanB); test: MIC, VanB-type VRE strain VE 157; type: cell-based, Enterococcus; settings: VE 157, VanB; read-out: MIC
Outline: as §1

[26] = tested on: VE 82 (VanC1); test: MIC, VanC1-type VRE strain VE 82; type: cell-based, Enterococcus gallinarum; settings: VE 82, VanC1; read-out: MIC
Outline: as §1

[27] = tested on: MRSA; test: Minimum bactericidal concentration against MRSA; type: cell-based, Staphylococcus aureus
Protocol: Plates were incubated overnight at 37°C and colony growth was inspected.

Question: Which MIC ([1]; Enterococcus faecalis VSE 1 (vancomycin-sensitive), read-out: MIC) does the source give for `CN[C@H](CC(C)C)C(=O)N[C@H]1C(=O)N[C@@H](CC(N)=O)C(=O)N[C@H]2C(=O)N[C@H]3C(=O)N[C@H](C(=O)N[C@H](C(=O)NCC(=O)Nc4ccc5c(c4)Cc4ccccc4-5)c4cc(O)cc(O)c4-c4cc3ccc4O)[C@H](O)c3ccc(c(Cl)c3)Oc3cc2cc(c3O[C@@H]2O[C@H](CO)[C@@H](O)[C@H](O)[C@H]2O[C@H]2C[C@](C)(N)[C@H](O)[C@H](C)O2)Oc2ccc(cc2Cl)[C@H]1O` [Vanc-42] here?
Answer: 0.20 µM (≈ 0.334 µg/mL)

Question: And the “MIC-fold improvement vs. vancomycin” value ([1]; VSE 1, ratio of MIC of vancomycin and MIC of analogue)?
Answer: 8

Question: And the MIC ([2]; Enterococcus faecalis VRE 6 (vancomycin-resistant), read-out: MIC)?
Answer: 0.78 µM (≈ 1.3 µg/mL)

Question: And the “MIC-fold improvement vs. vancomycin” value ([2]; VRE 6, ratio of MIC of vancomycin and MIC of analogue)?
Answer: 256

Question: And the MIC ([3]; Enterococcus faecalis VRE 53 (vancomycin-resistant), read-out: MIC)?
Answer: 12.5 µM (≈ 20.9 µg/mL)

Question: What about the “MIC-fold improvement vs. vancomycin” value ([3]; VRE 53, ratio of MIC of vancomycin and MIC of analogue) of the same compound?
Answer: 32

Question: And the MIC ([4]; Enterococcus faecalis VRE 29 (vancomycin-resistant), read-out: MIC)?
Answer: 1.56 µM (≈ 2.6 µg/mL)

Question: What about the “MIC-fold improvement vs. vancomycin” value ([4]; VRE 29, ratio of MIC of vancomycin and MIC of analogue) of the same compound?
Answer: 256

Question: And the MIC ([5]; Enterococcus faecalis VRE 37 (vancomycin-resistant), read-out: MIC)?
Answer: 3.13 µM (≈ 5.23 µg/mL)

Question: And the “MIC-fold improvement vs. vancomycin” value ([5]; VRE 37, ratio of MIC of vancomycin and MIC of analogue)?
Answer: 128

Question: What about the IC50 [6] of the same compound?
Answer: 177 ± 103 µM

Question: And the IC50 [7]?
Answer: 92 ± 3 µM

Question: What about the IC50 [8] of the same compound?
Answer: > 250 µM

Question: What about the IC50 ([9]; average IC50 used for TI in Table S5, >250 entered as 250, read-out: IC50) of the same compound?
Answer: 173 µM

Question: What about the IC50 ([9]; average of L1210, CEM and HeLa, read-out: Toxicity (IC50) Average) of the same compound?
Answer: 173 µM

Question: And the MIC ([10]; Staphylococcus aureus VSSA, read-out: MIC)?
Answer: 0.78 µM (≈ 1.3 µg/mL)

Question: And the “MIC-fold improvement vs. vancomycin” value ([10]; VSSA, ratio of MIC of vancomycin and MIC of analogue)?
Answer: 1

Question: What about the MIC ([11]; Staphylococcus aureus VISA/HIP5827, read-out: MIC) of the same compound?
Answer: 0.78 µM (≈ 1.3 µg/mL)

Question: And the “MIC-fold improvement vs. vancomycin” value ([11]; VISA/HIP5827, ratio of MIC of vancomycin and MIC of analogue)?
Answer: 8

Question: What about the MIC ([12]; Staphylococcus aureus VRSA, read-out: MIC) of the same compound?
Answer: 1.56 µM (≈ 2.6 µg/mL)

Question: And the “MIC-fold improvement vs. vancomycin” value ([12]; VRSA, ratio of MIC of vancomycin and MIC of analogue)?
Answer: 64

Question: And the “MIC-fold improvement vs. vancomycin” value ([13]; MRSA KS2, ratio of MIC of vancomycin and MIC of analogue)?
Answer: 4

Question: What about the MIC ([13]; Staphylococcus aureus MRSA KS2, read-out: MIC) of the same compound?
Answer: 0.20 µM (≈ 0.334 µg/mL)

Question: And the “MIC-fold improvement vs. vancomycin” value ([14]; MRSA KS6, ratio of MIC of vancomycin and MIC of analogue)?
Answer: 4

Question: And the MIC ([14]; Staphylococcus aureus MRSA KS6, read-out: MIC)?
Answer: 0.20 µM (≈ 0.334 µg/mL)

Question: What about the “MIC-fold improvement vs. vancomycin” value ([15]; MRSA KS8, ratio of MIC of vancomycin and MIC of analogue) of the same compound?
Answer: 4

Question: What about the MIC ([15]; Staphylococcus aureus MRSA KS8, read-out: MIC) of the same compound?
Answer: 0.20 µM (≈ 0.334 µg/mL)

Question: What about the “MIC-fold improvement vs. vancomycin” value ([16]; MRSA KS1, ratio of MIC of vancomycin and MIC of analogue) of the same compound?
Answer: 2

Question: And the MIC ([16]; Staphylococcus aureus MRSA KS1, read-out: MIC)?
Answer: 0.39 µM (≈ 0.651 µg/mL)

Question: And the “MIC Range” value ([17]; 33 clinical VRE isolates)?
Answer: 0.39 to 6.25 µM

Question: What about the “TI (IC50/MIC50)” value ([17]; in vitro therapeutic index, VRE) of the same compound?
Answer: 111

Question: What about the MIC50 ([17]; median MIC, 33 clinical VRE isolates, read-out: MIC50) of the same compound?
Answer: 1.56 µM (≈ 2.6 µg/mL)

Question: And the “MIC Range” value ([18]; 24 clinical MRSA isolates)?
Answer: 0.10 to 0.39 µM

Question: And the “TI (IC50/MIC50)” value ([18]; in vitro therapeutic index, MRSA)?
Answer: 865

Question: What about the MIC50 ([18]; median MIC, 24 clinical MRSA isolates, read-out: MIC50) of the same compound?
Answer: 0.20 µM (≈ 0.334 µg/mL)

Question: What about the “MIC-fold improvement vs. vancomycin” value [19] of the same compound?
Answer: up to 45

Question: And the “MIC-fold improvement vs. vancomycin” value ([19]; listed as Vanc- 42)?
Answer: 22

Question: And the “MIC-fold improvement vs. vancomycin” value [20]?
Answer: ≤ 58

Question: What about the MIC ([20]; C. difficile AIU ribotype 027, plate drop assay) of the same compound?
Answer: 0.78 µM (≈ 1.3 µg/mL)

Question: What about the “MIC-fold improvement vs. vancomycin” value ([20]; listed as Vanc- 42) of the same compound?
Answer: 58

Question: And the MIC [21]?
Answer: 3.13 µM (≈ 5.23 µg/mL)

Question: What about the MIC [22] of the same compound?
Answer: 3.13 µM (≈ 5.23 µg/mL)

Question: And the MIC [23]?
Answer: 3.13 µM (≈ 5.23 µg/mL)

Question: What about the MIC [24] of the same compound?
Answer: 3.13 µM (≈ 5.23 µg/mL)

Question: And the MIC [25]?
Answer: 3.13 µM (≈ 5.23 µg/mL)

Question: What about the MIC [26] of the same compound?
Answer: 1.56 µM (≈ 2.6 µg/mL)

Question: And the “MBC relative to MIC” value [27]?
Answer: MBC equaling their MIC values
